Measurements reported in US20120157434A1, “Antimicrobial heterocyclic compounds for treatment of bacterial infections” (CSO of MicuRx Pharmaceuticals, Inc., priority 2007, published 2012).
In brackets after ≈: the same amount, converted by molar mass. Read-outs that look alike come from different tables or passages of the source.

Columns and labels:
[1] = system: methicillin-resistant Staphylococcus aureus (MRSA); assay: MIC by agar dilution against a clinical isolate of MRSA; type: cell-based
Excerpt: The in vitro activity of compounds of the subject invention may be assessed by standard testing procedures such as the determination of minimum inhibitory concentration (MIC) by agar dilution as described in “Approved Standard. Methods for Dilution Antimicrobial Susceptibility Tests for Bacteria that Grow Aerobically,” 3rd ed., published 1993 by the National Committee for Clinical Laboratory standards, Villanova, Pa., USA.
The in vitro MICs of test compounds may be determined by a standard agar dilution method. A stock drug solution of each analog is prepared in a preferred solvent, usually DMSO:H2O (1:3). Serial 2-fold dilutions of each sample are made using 1.0 ml aliquots of sterile distilled water. To each 1.0 ml aliquot of drug is added 9 ml of molten Mueller Hinton agar medium. The drug-supplemented agar is mixed, poured into 15×100 mm petri dishes, and allowed to solidify and dry prior to inoculation.
Vials of each of the test microorganisms are maintained frozen in the vapor phase of a liquid nitrogen freezer. Test cultures are grown overnight at 35° C. on the medium appropriate for the microorganism. Colonies are harvested with a sterile swab, and cell suspensions are prepared in Trypticase Soy broth (TSB) to equal the turbidity of a 0.5 McFarland standard. A 1:20 dilution of each suspension is made in TSB. The plates containing the drug supplemented agar are inoculated with a 0.001 ml drop of the cell suspension using a Steers replicator, yielding approximately 10^4 to 10^5 cells per spot. The plates are incubated overnight at 35° C.
Following incubation the Minimum Inhibitory Concentration (MIC μg/ml), the lowest concentration of drug that inhibits visible growth of the microorganism, is read and recorded.
Compounds of this invention can have useful activity against a variety of pathogenic microorganisms. The in vitro activity of compounds of this invention can be assessed by standard testing procedures such as the determination of minimum inhibitory concentration (MIC) by agar dilution as described in “Approved Standard. Methods for Dilution Antimicrobial Susceptibility Tests for Bacteria That Grow Aerobically”, 3rd. ed., published 1993 by the National Committee for Clinical Laboratory Standards, Villanova, Pa., USA. Minimum inhibitory concentration (MIC) refers to the lowest concentration of drug (μg/mL) that inhibits visible growth of the organism. Lower MIC values indicate a higher antibacterial activity. […] The activity of compounds of present invention against a clinical isolate of methicillin-resistant Staphylococcus aureus (MRSA; from the Massachusetts General Hospital, USA) is exemplified by the MIC data of Table 1.

[2] = biological target: T1, Human monoamine oxidase (MOA) A type enzyme (Homo sapiens, UniProt P21397); assay: MAO A inhibition, MAO-Glo assay kit (Promega); type: biochemical; details: luminogenic substrate; for IC50: read-out: MAO-I IC50, μg/mL (converted)
T1 sequence (P21397 1-527): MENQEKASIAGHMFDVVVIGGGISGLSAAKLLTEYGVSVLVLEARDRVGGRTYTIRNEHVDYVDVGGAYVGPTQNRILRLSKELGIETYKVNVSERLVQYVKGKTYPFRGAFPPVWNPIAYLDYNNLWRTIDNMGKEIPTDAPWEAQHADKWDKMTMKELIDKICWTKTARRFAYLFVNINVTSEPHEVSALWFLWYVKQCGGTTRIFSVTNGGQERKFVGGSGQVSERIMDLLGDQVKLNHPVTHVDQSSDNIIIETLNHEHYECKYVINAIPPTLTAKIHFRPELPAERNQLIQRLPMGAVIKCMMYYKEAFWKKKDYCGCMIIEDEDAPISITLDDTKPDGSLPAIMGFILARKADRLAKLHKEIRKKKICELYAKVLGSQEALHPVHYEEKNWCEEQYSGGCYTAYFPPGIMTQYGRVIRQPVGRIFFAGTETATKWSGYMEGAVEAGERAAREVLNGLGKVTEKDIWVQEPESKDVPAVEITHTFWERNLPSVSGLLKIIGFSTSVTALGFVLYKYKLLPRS
Experimental: Human monoamine oxidase (MOA) A type enzyme inhibition activity for select compounds was measured using a commercial MAO assay kit MAO-Glo™ from Promega Co. (USA). The assay was performed as described in the company's technical bulletin MAOGlo™ Assay”. The protocol involves an incubation of the MAO A enzyme with a luminogenic MAO substrate to produce an enzymatic product which is converted to luciferin by a coupled reaction. The released luciferin undergoes further transformation to generate light that is detected and measured. The amount of the light is directly proportional to the activity of MAO. Percent inhibition at several concentrations is established relative to the uninhibited control rate, and the IC50 values are calculated. […] The MAO inhibition data for select compound of this invention are illustrated in the Table 1.

[3] = Staphylococcus aureus, read-out: MRSA, MIC, μg/mL
[4] = clinical isolate of methicillin-resistant Staphylococcus aureus (Massachusetts General Hospital, USA), agar dilution, read-out: MRSA, MIC

Compound	MIC [1, 3] [µg/mL]	MIC [1, 4] [µg/mL]	MAO-I IC50 [2] [µg/mL]	IC50 [2] [µM]
CC(=O)NC[C@@H]1OC(=O)N2c3ccc(-c4ccc(C5=NOC(CO)C5)nc4)cc3C[C@@H]12 (stereo partly drawn) [Example 8, N-(((1S,9aS)-7-(6-(5-(hydroxymethyl)-4,5-dihydroisoxazol-3-yl)pyridin-3-yl)-3-oxo-1,3,9,9a-tetrahydrooxazolo[3,4-a]indol-1-yl)methyl)acetamide]	1 (≈ 2.37 µM)			
CC(=O)NC[C@@H]1OC(=O)N2c3ccc(N4Cc5cccnc5C4)cc3C[C@@H]12 [Example 6, N-(((1S,9aS)-3-oxo-7-(5H-pyrrolo[3,4-b]pyridin-6(7H)-yl)-1,3,9,9a-tetrahydrooxazolo[3,4-a]indol-1-yl)methyl)acetamide]		0.5 (≈ 1.37 µM)		
CC(=O)NC[C@H]1CN(c2ccc(N3CCOCC3)c(F)c2)C(=O)O1 [Linezolid, linezolid, reference compound]		2 (≈ 5.93 µM)	5	
CC(=O)NC[C@@H]1OC(=O)N2c3ccc(-c4ccc(-n5cnnn5)nc4)cc3C[C@@H]12 [Example 4, N-(((1S,9aS)-7-(6-(1H-tetrazol-1-yl)pyridin-3-yl)-3-oxo-1,3,9,9a-tetrahydrooxazolo[3,4-a]indol-1-yl)methyl)acetamide]		0.5 (≈ 1.28 µM)		353
CC(=O)NC[C@@H]1OC(=O)N2c3ccc(-c4ccc(N5CCOC5=O)nc4)cc3C[C@@H]12 [Example 3, N-(((1S,9aS)-3-oxo-7-(6-(2-oxooxazolidin-3-yl)pyridin-3-yl)-1,3,9,9a-tetrahydrooxazolo[3,4-a]indol-1-yl)methyl)acetamide]	0.25 (≈ 0.612 µM)			
CC(=O)NC[C@@H]1OC(=O)N2c3ccc(-c4ccc(-c5nnn(C)n5)nc4)cc3C[C@@H]12 [Example 1, N-(((1S,9aS)-7-(6-(2-methyl-2H-tetrazol-5-yl)pyridin-3-yl)-3-oxo-1,3,9,9a-tetrahydrooxazolo[3,4-a]indol-1-yl)methyl)acetamide]	0.5 (≈ 1.23 µM)			
CC(=O)NC[C@@H]1OC(=O)N2c3ccc(-c4ccc(C(=O)Cn5ccnc5)nc4)cc3C[C@@H]12 [Example 11, N-(((1S,9aS)-7-(6-(2-(1H-imidazol-1-yl)acetyl)pyridin-3-yl)-3-oxo-1,3,9,9a-tetrahydrooxazolo[3,4-a]indol-1-yl)methyl)acetamide]	1 (≈ 2.32 µM)			> 232
CC(=O)NC[C@@H]1OC(=O)N2c3ccc(-c4ccc([C@@]5(C#N)[C@@H]6CNC[C@@H]65)nc4)cc3C[C@@H]12 [Example 18, N-(((1S,9aS)-7-(6-((1R,5S,6s)-6-cyano-3-azabicyclo[3.1.0]hexan-6-yl)pyridin-3-yl)-3-oxo-1,3,9,9a-tetrahydrooxazolo[3,4-a]indol-1-yl)methyl)acetamide]		0.5 (≈ 1.16 µM)		> 233
CC(=O)NC[C@@H]1OC(=O)N2c3ccc(-c4ccc(-c5nnnn5C)nc4)cc3C[C@@H]12 [Example 2, N-(((1S,9aS)-7-(6-(1-methyl-1H-tetrazol-5-yl)pyridin-3-yl)-3-oxo-1,3,9,9a-tetrahydrooxazolo[3,4-a]indol-1-yl)methyl)acetamide]		0.5 (≈ 1.23 µM)		
